Laboratory results: patent US20240164998A1, “FRAGRANCE COMPOSITION” (TAKASAGO INTERNATIONAL CORPORATION, priority 2022, published 2024)
Counter-ions that a name gives are not always drawn.

Tests used:
[1] = Sensory evaluation of fragrance compositions against model body odor; design: species or system people; settings: each malodor (model body odor, model nursing care odor); substance in floral base fragrance composition
Experimental: TEC in the tables indicates triethyl citrate. […] Note that, a grouping method and the ratio within the groups are optional and are not limited by Table 9. Floral bases in Table 2 to Table 8 were prepared according to Table 10.
The malodor prevention ability of these fragrance compositions was confirmed by sensory evaluation. As for malodor, model body odor and model nursing care odor containing hexanal as one of key components were prepared according to Table 11 and Table 12. 10 μL of each model malodor and 1 μL of the fragrances 1 to 60 as test substances were dropped into a cotton ball, which was charged into a plastic bottle. The bottle was left standing at room temperature for 30 minutes to allow odor molecules to sufficiently volatilize inside the bottle. A sensory evaluation test was performed by a panel of 20 people, the discomfort when the malodor was dropped alone was rated as −3, and the discomfort when the test substance was mixed was evaluated from −4 (extremely discomfortable) to +4 (extremely comfortable). An average value was calculated from the obtained numerical values.

[2] = Sensory evaluation of malodor prevention ability of group A against hexanal odor; design: species or system people; settings: scale 0 (no malodor felt) to 10 (very strong); hexanal alone rated 8; 10 μL hexanal diluted 100 times + 1 μL test substance, 1 hour room temperature; average of panel of 20
Experimental: The malodor prevention ability of a test substance was confirmed by sensory evaluation. As malodor, 10 μL of hexanal diluted 100 times with dipropylene glycol and 1 μL of the test substance were dropped into a cotton ball, which was charged into a plastic bottle. The bottle was left standing at room temperature for 1 hour to allow odor molecules to sufficiently volatilize inside the bottle. A sensory evaluation test was performed by a panel of 20 people, a malodor intensity when the malodor was dropped alone was rated as 8, and the odor intensity when the test substance was mixed was evaluated from 0 (no malodor was felt) to 10 (very strong malodor was felt). An average value was calculated from the obtained numerical values.

In the case of `O=C1CCCC=CCCCCCCCCCC1` [Ambretone, 5-cyclohexadecenone], the “effect on reducing the discomfort due to malodor (in words)” value (“effect on reducing the discomfort due” for short) [1] is reported as “reduced the discomfort due to each malodor” and the Hexanal odor intensity [2] is reported as 3.5.
Work on `CC1CCC(C(C)C)C(OCC(O)CO)C1` (stereo not shown) [COOLACT 10, 3-(menthoxy)propane-1,2-diol] yielded a Hexanal odor intensity [2] of 3.3.
In the case of `C=C(C)C1CC=C(C)C(=O)C1` (stereo not shown) [Carvone, reference compound], the Hexanal odor intensity [2] is reported as 7.1.
With `CCCC(O)CCC1C(C)CCCC1(C)C` (stereo not shown) [Dextramber, 1-(2,2,6-trimethylcyclohexyl)hexan-3-ol] the “effect on reducing the discomfort due” value [1] was “reduced the discomfort due to each malodor” and the Hexanal odor intensity [2] was 3.0.
In the case of `CCCCCC1C(=O)CCC1CC(=O)OC` (stereo not shown) [Hedione, methyl (2-pentyl-3-oxo-cyclopentyl) acetate], the “effect on reducing the discomfort due” value [1] is reported as “reduced the discomfort due to each malodor” and the Hexanal odor intensity [2] is reported as 4.2.
With `CC(=CCC1CC=C(C)C1(C)C)CO` (stereo not shown) [Hindinol, 2-methyl-4-(2,2,3-trimethyl-3-cyclopentenyl)-2-buten-1-ol] the “effect on reducing the discomfort due” value [1] was “reduced the discomfort due to each malodor” and the Hexanal odor intensity [2] was 3.9.
For `C=C(C)[C@@H]1CC[C@@H](C)C[C@H]1O` [Isopulegol, isopulegol], the “effect on reducing the discomfort due” value [1] was “reduced the discomfort due to each malodor” and the Hexanal odor intensity [2] was 3.4.
Compound `CC(C)[C@@H]1CC[C@@H](C)CC1=O` [Menthone, reference compound] has a Hexanal odor intensity [2] of 6.9.
For `CC(=O)C1(C)CC2=C(CCCC2(C)C)CC1C` (stereo not shown) [Orbitone, 2-acetyl-2,3,8,8-tetramethyloctarine], the “effect on reducing the discomfort due” value [1] was “reduced the discomfort due to each malodor” and the Hexanal odor intensity [2] was 3.9.
With `CC(c1ccccc1)C1CC1C(C)(C)O` (stereo not shown) [Pamplefix, 50% triethyl citrate solution, dimethyl-2-(1-phenylethyl)cyclopropylmethanol] the “effect on reducing the discomfort due” value [1] was “reduced the discomfort due to each malodor” and the Hexanal odor intensity [2] was 4.1.
With `CC1=CCC(C(C)C)C=C1` (stereo not shown) [Phellandrene, p-mentha-1,5-diene] the “effect on reducing the discomfort due” value [1] was “reduced the discomfort due to each malodor” and the Hexanal odor intensity [2] was 4.1.
In the case of `CCOC(=O)C1C(C)CCCC1(C)C` (stereo not shown) [Thesaron, ethyl 2,2,6-trimethylcyclohexane-1-carboxylate], the “effect on reducing the discomfort due” value [1] is reported as “reduced the discomfort due to each malodor” and the Hexanal odor intensity [2] is reported as 2.6.
In the case of `CCOC(=O)C(C)C(C)S` (stereo not shown) [ethyl 3-mercapto-2-methylbutyrate], the “effect on reducing the discomfort due” value [1] is reported as “reduced the discomfort due to each malodor” and the Hexanal odor intensity [2] is reported as 3.1.
In the case of `CC(=O)C(C)=CC1C(C)=CCCC1(C)C` (stereo not drawn) [α-isomethylionone, 3-methyl-4-(2,6,6-trimethyl-2-cyclohexen-1-yl)-3-buten-2-one], the “effect on reducing the discomfort due” value [1] is reported as “reduced the discomfort due to each malodor” and the Hexanal odor intensity [2] is reported as 3.1.
